# Measured values published in patent publication US20150181873A1, “HERBICIDE-RESISTANT SUNFLOWER PLANTS, POLYNUCLEOTIDES ENCODING HERBICIDE=RESISTANT ACETO HYDROXY ACID SYNTHASE LARGE SUBUNIT PROTEINS, AND METHODS OF USE” (NIDERA S.A., priority 2013, published 2015).
# Several values for one entry are separate records, joined by “and”; a condition that tells them apart may be missing. Equal entries are not always repeated.
# Columns and labels:
# Type in all cases: in vivo, Helianthus annuus
# [1] = tested on: sunflower genotypes carrying the A205V mutation event; test: Greenhouse imazapir dose response, A205V genotypes together; details: 14 DAT; for biomass accumulation, Dif with control / plant height, Dif with Control / root dry weight, Dif with control: A205V mean; for biomass accumulation, % of untreated, Mean / root dry weight, % of untreated, Mean / plant height, % of untreated, Mean: six A205V genotypes; for Phytotoxicity Index, Mean: three A205V genotypes
# Procedure: (§1) A greenhouse study was conducted to quantify and contrast the imazapir sensivity of the mutants A122T and A205V in different genetic backgrounds at the whole plant level in sunflower. Seeds of the different sunflower lines that were used in this study were obtained under field conditions.
# (§2) Seeds were sown in Petri dishes and, after germination, plantlets were transplanted to pots of 10 cm of diameter in a potting media consisting of equal parts of vermiculite, soil and sand. Plants were grown in a greenhouse under natural light conditions supplemented with 400 W sodium halide lamps to provide a 16 hrs daylength. Day/night temperatures were 25 and 20° C., respectively. At the V2 stage 10 plants of each genotype were randomly assigned to each treatment consisting of […] imazapir doses (0, 40, 80, 160, 240, 320, 400 and 480 g ai/ha), and a zero-time biomass determination. Experiment was arranged as a randomized block design with a full factorial (sunflower line×treatment) arrangement of treatments and 10 replications.
# (§3) On the day of herbicide application ten plants of each genotype were cut at the cotyledonal node and dried at 60° C. for 48 hrs zero-time for dried weight determination. […] Height was determined as the distance between the cotyledonal node and the apex of each plant. For root biomass determination, each plant was taken from the pot and the potting media was washed out from the roots. Above ground biomass data from each line were converted to biomass accumulation after application by subtracting the appropriate average zero-time biomass from each sample. Dry biomass data were converted to percentages of the untreated control plants within each line to allow direct comparisons between groups.
# [2] = tested on: sunflower hybrid TH6 (A122T); test: Greenhouse imazapir dose response, TH6; details: 14 DAT
# Procedure: as §1, §2, §3
# [3] = tested on: sunflower line GIM 5-7 (A205V); test: Greenhouse imazapir dose response, GIM 5-7; details: GIM5-7 (A205V), 14 DAT
# Procedure: as §1, §2, §3
# [4] = tested on: sunflower restorer line TH10 (A205V); test: Greenhouse imazapir dose response, TH10; details: 14 DAT
# Procedure: as §1, §2, §3
smiles,measurement,setting,value
"CC(C)C1(C)N=C(c2ncccc2C(=O)O)NC1=O (stereo not shown) [Imazapyr, imazapyr]","biomass accumulation, Dif with control",[1]; 0.5x (40 g ai/ha),5.5%
same,"plant height, Dif with Control",[1]; 0.5x (40 g ai/ha),5.6%
same,"root dry weight, Dif with control",[1]; 0.5x (40 g ai/ha),12.8%
same,"biomass accumulation, Dif with control",[1]; 1x (80 g ai/ha),17.8%
same,"plant height, Dif with Control",[1]; 1x (80 g ai/ha),10.8%
same,"root dry weight, Dif with control",[1]; 1x (80 g ai/ha),29.2%
same,"biomass accumulation, Dif with control",[1]; 2x (160 g ai/ha),38.4%
same,"plant height, Dif with Control",[1]; 2x (160 g ai/ha),30.8%
same,"root dry weight, Dif with control",[1]; 2x (160 g ai/ha),49.4%
same,"biomass accumulation, Dif with control",[1]; 3x (240 g ai/ha),52.4%
same,"plant height, Dif with Control",[1]; 3x (240 g ai/ha),49.6%
same,"root dry weight, Dif with control",[1]; 3x (240 g ai/ha),60.8%
same,"biomass accumulation, Dif with control",[1]; 4x (320 g ai/ha),64.6%
same,"plant height, Dif with Control",[1]; 4x (320 g ai/ha),66.3%
same,"root dry weight, Dif with control",[1]; 4x (320 g ai/ha),68.9%
same,"biomass accumulation, Dif with control",[1]; 5x (400 g ai/ha),67.6%
same,"plant height, Dif with Control",[1]; 5x (400 g ai/ha),68.0%
same,"root dry weight, Dif with control",[1]; 5x (400 g ai/ha),69.3%
same,"biomass accumulation, Dif with control",[1]; 6x (480 g ai/ha),70.0%
same,"root dry weight, Dif with control",[1]; 6x (480 g ai/ha),75.6%
same,"plant height, Dif with Control","[1]; 6x (480 g ai/ha), listed as imazapir",68.9% and 69.8%
same,"biomass accumulation, % of untreated, Mean",[1]; 0.5x (40 g ai/ha),94.5%
same,"root dry weight, % of untreated, Mean",[1]; 0.5x (40 g ai/ha),87.2%
same,"biomass accumulation, % of untreated, Mean",[1]; 1x (80 g ai/ha),82.2%
same,"root dry weight, % of untreated, Mean",[1]; 1x (80 g ai/ha),70.8%
same,"biomass accumulation, % of untreated, Mean",[1]; 2x (160 g ai/ha),61.6%
same,"plant height, % of untreated, Mean",[1]; 2x (160 g ai/ha),69.2%
same,"root dry weight, % of untreated, Mean",[1]; 2x (160 g ai/ha),50.6%
same,"biomass accumulation, % of untreated, Mean",[1]; 3x (240 g ai/ha),47.6%
same,"plant height, % of untreated, Mean",[1]; 3x (240 g ai/ha),50.4%
same,"root dry weight, % of untreated, Mean",[1]; 3x (240 g ai/ha),39.2%
same,"biomass accumulation, % of untreated, Mean",[1]; 4x (320 g ai/ha),35.4%
same,"plant height, % of untreated, Mean",[1]; 4x (320 g ai/ha),33.7%
same,"root dry weight, % of untreated, Mean",[1]; 4x (320 g ai/ha),31.1%
same,"biomass accumulation, % of untreated, Mean",[1]; 5x (400 g ai/ha),32.4%
same,"plant height, % of untreated, Mean",[1]; 5x (400 g ai/ha),32.0%
same,"root dry weight, % of untreated, Mean",[1]; 5x (400 g ai/ha),30.7%
same,"biomass accumulation, % of untreated, Mean",[1]; 6x (480 g ai/ha),30.0%
same,"plant height, % of untreated, Mean",[1]; 6x (480 g ai/ha),30.2%
same,"root dry weight, % of untreated, Mean",[1]; 6x (480 g ai/ha),24.4%
same,"Phytotoxicity Index, Mean",[1]; 0.5x (40 g ai/ha),0
same,"Phytotoxicity Index, Mean",[1]; 1x (80 g ai/ha),0
same,"Phytotoxicity Index, Mean",[1]; 2x (160 g ai/ha),2.2
same,"Phytotoxicity Index, Mean",[1]; 3x (240 g ai/ha),5.1
same,"Phytotoxicity Index, Mean",[1]; 4x (320 g ai/ha),7.4
same,"Phytotoxicity Index, Mean",[1]; 5x (400 g ai/ha),8.2
same,"Phytotoxicity Index, Mean",[1]; 6x (480 g ai/ha),8.2
same,Phytotoxicity Index,[2]; 0.5x (40 g ai/ha),0.5
same,"biomass accumulation, % of untreated",[2]; 0.5x (40 g ai/ha),100%
same,"plant height, % of untreated",[2]; 0.5x (40 g ai/ha),99.2%
same,"root dry weight, % of untreated",[2]; 0.5x (40 g ai/ha),100%
same,Phytotoxicity Index,[2]; 1x (80 g ai/ha),0.5
same,"biomass accumulation, % of untreated",[2]; 1x (80 g ai/ha),97.2%
same,"plant height, % of untreated",[2]; 1x (80 g ai/ha),98.6%
same,"root dry weight, % of untreated",[2]; 1x (80 g ai/ha),98.1%
same,Phytotoxicity Index,[2]; 2x (160 g ai/ha),0.5
same,"biomass accumulation, % of untreated",[2]; 2x (160 g ai/ha),97.9%
same,"plant height, % of untreated",[2]; 2x (160 g ai/ha),100.3%
same,"root dry weight, % of untreated",[2]; 2x (160 g ai/ha),96.2%
same,Phytotoxicity Index,[2]; 3x (240 g ai/ha),0.5
same,"biomass accumulation, % of untreated",[2]; 3x (240 g ai/ha),98.2%
same,"plant height, % of untreated",[2]; 3x (240 g ai/ha),99.6%
same,"root dry weight, % of untreated",[2]; 3x (240 g ai/ha),79.3%
same,Phytotoxicity Index,[2]; 4x (320 g ai/ha),0.5
same,"biomass accumulation, % of untreated",[2]; 4x (320 g ai/ha),97.8%
same,"plant height, % of untreated",[2]; 4x (320 g ai/ha),101.0%
same,"root dry weight, % of untreated",[2]; 4x (320 g ai/ha),78.4%
same,Phytotoxicity Index,[2]; 5x (400 g ai/ha),0.5
same,"biomass accumulation, % of untreated",[2]; 5x (400 g ai/ha),85.1%
same,"plant height, % of untreated",[2]; 5x (400 g ai/ha),87.0%
same,"root dry weight, % of untreated",[2]; 5x (400 g ai/ha),85.8%
same,Phytotoxicity Index,[2]; 6x (480 g ai/ha),0.5
same,"biomass accumulation, % of untreated",[2]; 6x (480 g ai/ha),79.5%
same,"plant height, % of untreated",[2]; 6x (480 g ai/ha),79.6%
same,"root dry weight, % of untreated",[2]; 6x (480 g ai/ha),57.3%
same,"biomass accumulation, % of untreated",[3]; 0.5x (40 g ai/ha),92.9%
same,"plant height, % of untreated",[3]; 0.5x (40 g ai/ha),79.1%
same,"root dry weight, % of untreated",[3]; 0.5x (40 g ai/ha),79.2%
same,"biomass accumulation, % of untreated",[3]; 1x (80 g ai/ha),75.1%
same,"plant height, % of untreated",[3]; 1x (80 g ai/ha),76.7%
same,"root dry weight, % of untreated",[3]; 1x (80 g ai/ha),56.3%
same,"biomass accumulation, % of untreated",[3]; 2x (160 g ai/ha),55.1%
same,"plant height, % of untreated",[3]; 2x (160 g ai/ha),57.7%
same,"root dry weight, % of untreated",[3]; 2x (160 g ai/ha),40.6%
same,"biomass accumulation, % of untreated",[3]; 3x (240 g ai/ha),45.6%
same,"plant height, % of untreated",[3]; 3x (240 g ai/ha),55.3%
same,"root dry weight, % of untreated",[3]; 3x (240 g ai/ha),40.2%
same,"biomass accumulation, % of untreated",[3]; 4x (320 g ai/ha),31.8%
same,"plant height, % of untreated",[3]; 4x (320 g ai/ha),27.3%
same,"root dry weight, % of untreated",[3]; 4x (320 g ai/ha),34.0%
same,"biomass accumulation, % of untreated",[3]; 5x (400 g ai/ha),34.2%
same,"plant height, % of untreated",[3]; 5x (400 g ai/ha),37.2%
same,"root dry weight, % of untreated",[3]; 5x (400 g ai/ha),48.5%
same,"biomass accumulation, % of untreated",[3]; 6x (480 g ai/ha),36.8%
same,"plant height, % of untreated",[3]; 6x (480 g ai/ha),30.0%
same,"root dry weight, % of untreated",[3]; 6x (480 g ai/ha),43.1%
same,Phytotoxicity Index,[4]; 0.5x (40 g ai/ha),0
same,"biomass accumulation, % of untreated",[4]; 0.5x (40 g ai/ha),99.2%
same,"plant height, % of untreated",[4]; 0.5x (40 g ai/ha),99.2%
same,"root dry weight, % of untreated",[4]; 0.5x (40 g ai/ha),90.3%
same,Phytotoxicity Index,[4]; 1x (80 g ai/ha),0
same,"biomass accumulation, % of untreated",[4]; 1x (80 g ai/ha),85.0%
same,"plant height, % of untreated",[4]; 1x (80 g ai/ha),98.1%
same,"root dry weight, % of untreated",[4]; 1x (80 g ai/ha),69.9%
same,Phytotoxicity Index,[4]; 2x (160 g ai/ha),3.1
same,"biomass accumulation, % of untreated",[4]; 2x (160 g ai/ha),58.1%
same,"plant height, % of untreated",[4]; 2x (160 g ai/ha),63.6%
same,"root dry weight, % of untreated",[4]; 2x (160 g ai/ha),41.3%
same,Phytotoxicity Index,[4]; 3x (240 g ai/ha),3.9
same,"biomass accumulation, % of untreated",[4]; 3x (240 g ai/ha),48.1%
same,"plant height, % of untreated",[4]; 3x (240 g ai/ha),51.9%
same,"root dry weight, % of untreated",[4]; 3x (240 g ai/ha),42.8%
same,Phytotoxicity Index,[4]; 4x (320 g ai/ha),5.9
same,"biomass accumulation, % of untreated",[4]; 4x (320 g ai/ha),28.8%
same,"plant height, % of untreated",[4]; 4x (320 g ai/ha),27.5%
same,"root dry weight, % of untreated",[4]; 4x (320 g ai/ha),22.3%
same,Phytotoxicity Index,[4]; 5x (400 g ai/ha),6.9
same,"biomass accumulation, % of untreated",[4]; 5x (400 g ai/ha),27.4%
same,"plant height, % of untreated",[4]; 5x (400 g ai/ha),26.0%
same,"root dry weight, % of untreated",[4]; 5x (400 g ai/ha),22.7%
same,Phytotoxicity Index,[4]; 6x (480 g ai/ha),6.7
same,"biomass accumulation, % of untreated",[4]; 6x (480 g ai/ha),24.9%
same,"plant height, % of untreated",[4]; 6x (480 g ai/ha),29.3%
same,"root dry weight, % of untreated",[4]; 6x (480 g ai/ha),16.4%
